The values that follow come from patent publication US7563462B2, “Methods for modulating eicosanoid metabolism” (The University of Texas MD Anderson Cancer Center, priority 2005, dated 2009).

Usually IC50 stands for the point on the concentration scale where inhibition reaches its midpoint.

Molecules are shown by their SMILES.

Data set [1] relates to human tumor prostate (PC3). Put plainly: Effect of 13-S-HODE on proliferation, PC3. The format is cell-based. As to conditions: read-out: IC50 (inhibition of cancer cell line growth). As for the experimental part: (§1) The relative ability of 13-S-HODE to inhibit prostate and colon cancer cell lines with an IC50 of about 3-4 uM. This is of importance when compared to the content of 13-S-HODE in the inventive composition. That is, as shown in Table 2 above there is sufficient 13-S-HODE within the composition to account for inhibition of cell growth. No doubt other factors within the composition also contribute to its ability to inhibit prostate and colon tumor cell growth but the ability of 13-S-HODE within the composition to be able to do this is of obvious interest.

The test system of data set [2] is colon (LS174). Put plainly: Effect of 13-S-HODE on proliferation, LS174. The format is cell-based. As to conditions: Homo sapiens, read-out: IC50 (inhibition of cancer cell line growth). As for the experimental part:
as §1

Data set [3] concerns lung adenocarcinoma (A549). Put plainly: Effect of 13-S-HODE on proliferation, A549. The format is cell-based, human.
Data set [4] deals with PC3 cells. Put plainly: Western blot of 5-LOX, 12-LOX and COX-2 protein in PC3 cells. Type of data set: cell-based, human. In general terms: In western blotting, separated proteins are transferred to a membrane and probed.
Data set [5] concerns PC3 cells. Put plainly: Eicosanoid add-back to composition-treated PC3 cells. Type of data set: cell-based, human.
The target in data set [6] is T1, 12-LOX (Homo sapiens, UniProt P18054).
T1 construct: endogenous in cells; host or cells: PC3 human prostate cancer cells
T1 sequence (P18054 1-663): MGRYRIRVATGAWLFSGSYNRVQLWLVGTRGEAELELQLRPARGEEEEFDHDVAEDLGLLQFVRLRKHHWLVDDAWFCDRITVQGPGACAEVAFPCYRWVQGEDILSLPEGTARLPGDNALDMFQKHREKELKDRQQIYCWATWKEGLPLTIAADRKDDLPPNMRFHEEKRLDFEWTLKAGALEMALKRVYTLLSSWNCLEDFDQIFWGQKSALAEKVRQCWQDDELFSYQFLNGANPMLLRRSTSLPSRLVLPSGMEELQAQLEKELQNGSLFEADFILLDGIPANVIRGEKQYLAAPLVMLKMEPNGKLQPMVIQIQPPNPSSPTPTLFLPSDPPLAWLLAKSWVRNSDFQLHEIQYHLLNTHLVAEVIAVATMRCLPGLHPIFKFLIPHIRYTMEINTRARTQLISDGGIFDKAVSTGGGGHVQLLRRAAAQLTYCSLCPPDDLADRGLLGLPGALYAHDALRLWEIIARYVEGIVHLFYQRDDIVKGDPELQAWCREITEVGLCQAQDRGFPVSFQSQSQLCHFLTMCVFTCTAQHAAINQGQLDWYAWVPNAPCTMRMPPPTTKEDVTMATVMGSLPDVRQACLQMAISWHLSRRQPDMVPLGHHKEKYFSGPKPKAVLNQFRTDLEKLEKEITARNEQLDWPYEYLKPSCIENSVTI
Put plainly: 12-HETE levels / 12-LOX activity in PC3 cells. Type of data set: cell-based. Details: key: ↓ indicates reduction, inhibition, or downregulation; ↑ indicates enhancement, activation, or upregulation.

Data set [7] deals with PC3 cells. Put plainly: Cell cycle distribution by flow cytometry. The format is cell-based, human. As for the experimental part:
The herbal product produces a clear G2/M accumulation of cells that is evident even at concentrations as low as 0.28 ul/ml. At higher concentrations, the G2/M phase is more evident as is a sub G0 peak indicative of apoptosis. Concomitant with the rise in numbers of cells in G2/M there is a progressive concentration-dependent fall of cells in the G1 portion of the cell cycle. Only 10% of control cells are routinely present at the G2/M phase, while treatment with 0.57 ul/ml of the inventive compositions results in greater than 40% of cells in a G2/M block. […] The G2/M percentage of cells is small (small dark shaded peak to the right in the figure. In the second plot (upper right) PC3 cells have been treated with 0.28 ul of the inventive compositions/ml tissue culture media. The size of the G2/M peak increases. The plot in the lower left (0.57 ul of the inventive compositions/ml) and in the lower right (1.14 ul/ml) show an increasing cell cycle block due to increased concentration of the inventive compositions.

For data set [8], the system named is PC3 cells. Put plainly: Phosphoprotein analyses of PC3 cell lysates. Type of data set: cell-based, human. Details: key to Cyclin D1 / Cyclin D3 / Bcl-XL / Bax / Bcl-2 / pAKT / survivin / pRb content / Rb content: ↓ indicates reduction, inhibition, or downregulation; ↑ indicates enhancement, activation, or upregulation. As to conditions: nontoxic concentrations. An excerpt:
The data in Table 5 were derived from phosphoprotein analyses of PC3 cell lysates after treatment with nontoxic concentrations of either the inventive compositions or baicalein, a component of Scutellaria. Proteins were separated using gel electrophoresis and then the gel was probed with monoclonal antibodies to the proteins. The antibodies could detect differences in phosphorylation status of the proteins. Gels were then quantified using a densitometer. There are many similarities in the changes in phosphorylation status signaling similar up regulation or down regulation of proteins involved in cell cycle block (e.g. cyclin D1, cyclin D3 and pRB) or proteins associated with apoptosis (e.g. surviving, Bcl-XL and Bcl-2).

In data set [9] the test system is PC3 cells. Put plainly: Cytotoxicity in PC3 cells. The format is cell-based, human.
[10] abbreviates: growth inhibitory concentrations of the inventive compositions.

In the case of `CCCCCC(O)/C=C/C=C\CCCCCCCC(=O)O` (stereo not drawn) [13-S-HODE, 13-hydroxyoctadeca-9Z, 11E-dienoic acid], the IC50 in data set [1] and in data set [2] was 3 to 4 µM each time. The “inhibition of cell growth” value in data set [3] is given as “not lung adenocarcinoma (A549) cell growth”.

In the case of `CC(c1cc2ccccc2s1)N(O)C(N)=O` (stereo not drawn) [Zileuton], the “cellular content of 5-LOX protein (Western blot)” value in data set [4] is “did not produce any change in relative 5-LOX enzyme content within cells”.

Regarding `CCCCC[C@H](O)/C=C/[C@H]1[C@H](O)CC(=O)[C@@H]1C/C=C\CCCC(=O)O` [PGE2], the “cell proliferation after adding the eicosanoid to composition-treated PC3 cells” value (from here on “cell proliferation”) in [5] (setting [10]) is “failed to block cellular proliferation”.

Consider `O=c1cc(-c2ccccc2)oc2cc(O)c(O)c(O)c12` [Baicalein, baicalein], for which, in [6], the 12-LOX activity entry is recorded as “↓”. For the same compound, the Cell cycle block entry in [7] is listed as “Yes”. Besides, in data set [8], the Bax entry is reported as “↑”, the Bcl-2 result is given as “↓”, the Bcl-XL entry is reported as “↓” and the “Cyclin D1” value was “↓”. In [8], the “Cyclin D3” value is listed as “↓”, the P27 result was “Strong ↓”, the Rb content entry is listed as “↑” and the p21 result was “Strong ↓”. Moreover, in [8], the pAKT entry was “↓”, the pRb content result is given as “↓” and the survivin result is “↓”. Further, in data set [9], the Cytotoxicity result is “Yes”.

`CCCCC/C=C\C[C@H](O)/C=C/C=C\C/C=C\CCCC(=O)O` [12-HETE]: the “cell proliferation” value in data set [5] (inventive compositions 1 ul/ml) was “near doubling of cell proliferation”.

As to `CCCCC/C=C\C/C=C\C/C=C\C=C\[C@@H](O)CCCC(=O)O` [5-HETE], the “cell proliferation” value in data set [5] (setting [10]) is on record as “failed to block cellular proliferation”.
